Source: article PMC4696607 (ACS infectious diseases, 2015)

Key:
JEV = assay: microbe, parasite or virus in culture; assay type: cell-based, Japanese encephalitis virus (JEV); details: Japanese encephalitis virus, A549, 42 h
[1] = tested on: herpes simplex virus (HSV)-1; details: cited from earlier work
[2] = tested on: anthrax lethal factor (LF); details: cited from earlier work
WNV MTase [3] = molecular target: T1, WNV MTase (West Nile virus, UniProt Q9Q6P4); assay: 2′-O methylation inhibition assay, WNV MTase
T1 sequence (Q9Q6P4 2529-2794): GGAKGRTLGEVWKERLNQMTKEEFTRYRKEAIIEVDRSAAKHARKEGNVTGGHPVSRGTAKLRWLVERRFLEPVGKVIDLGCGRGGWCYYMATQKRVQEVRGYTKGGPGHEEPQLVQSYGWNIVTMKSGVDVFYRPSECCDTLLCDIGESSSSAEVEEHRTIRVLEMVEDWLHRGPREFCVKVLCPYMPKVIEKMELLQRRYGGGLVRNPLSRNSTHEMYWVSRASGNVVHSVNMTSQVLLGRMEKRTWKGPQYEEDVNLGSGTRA

DENV-2 = assay: microbe, parasite or virus in culture; assay type: cell-based, Dengue virus (DENV-2); details: Dengue virus, DENV2, A549, 42 h
SLEV = assay: organism not typed; assay type: cell-based, St. Louis encephalitis viruses (SLEV); details: A549, 42 h
WEEV = assay type: cell-based
[4] = cited from earlier work
WNV MTase [5] = molecular target: T1, WNV MTase; assay: N7 methylation inhibition assay, WNV MTase; details: for IC50: WNV MTase
BHK-21 cells = assay: MTT cell proliferation cytotoxicity assay, BHK-21; assay type: cell-based; details: for CC50 relative to IC50 (fold higher): BHK-21 CC50 vs in vitro IC50; for CC50: BHK-21 cells, MTT, 42 h
WNV = assay: microbe, parasite or virus in culture; assay type: cell-based, West Nile virus (WNV); details: West Nile virus, 42 h
VSV = assay type: cell-based
DENV3MTase = DENV3MTase (Dengue virus type 3, UniProt Q6YMS4); assay: Competitive SAM binding assay
DENV3MTase, sequence (Q6YMS4 2492-2753): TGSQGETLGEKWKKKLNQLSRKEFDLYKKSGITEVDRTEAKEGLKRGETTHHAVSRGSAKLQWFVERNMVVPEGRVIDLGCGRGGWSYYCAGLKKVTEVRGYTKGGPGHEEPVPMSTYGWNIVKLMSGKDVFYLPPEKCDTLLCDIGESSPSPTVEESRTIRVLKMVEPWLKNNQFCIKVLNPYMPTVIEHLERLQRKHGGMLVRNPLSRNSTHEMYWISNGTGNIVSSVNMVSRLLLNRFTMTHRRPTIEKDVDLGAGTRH

[6] = IC50 N7, with CHAPS, with CHAPS
[7] = read-out: IC50 2′-O, with CHAPS, WNV MTase, with CHAPS
[8] = read-out: IC50 N7, no CHAPS, no CHAPS

Cc1cc(N)c2cc(NC(=O)Nc3ccc4nc(C)cc(N)c4c3)ccc2n1 [NSC 12155, aminoquinuride]
EC50 (JEV): 3.1 µM
cell adhesion by HSV-1 [1]: prevent cell adhesion
anthrax lethal factor (LF) activity [2]: inhibited
IC50 (WNV MTase [3]): 3 µM
EC50 (DENV-2): 7 µM
EC50 (SLEV): 5.1 µM
inhibition of virus growth (WEEV): did not inhibit
binding to glycosaminoglycans [4]: bind to glycosaminoglycans
IC50 (WNV MTase [5]; IC50 N7, no CHAPS, no CHAPS): 1.4 µM
IC50 (WNV MTase [5]; [6]): 0.87 µM
CC50 relative to IC50 (fold higher) (BHK-21 cells): 20 fold
EC50 (WNV): 1 µM
inhibition of virus growth (VSV): did not inhibit
IC50 (DENV3MTase): 1.2 µM

Nc1ccc(-c2ccc(Nc3cc(S(=O)(=O)O)c(N)c4c3C(=O)c3ccccc3C4=O)cc2)c(S(=O)(=O)O)c1 [NSC 125910]
IC50 (WNV MTase [3]): 3.2 µM
IC50 (WNV MTase [5]; IC50 N7, no CHAPS, no CHAPS): 7.6 µM
IC50 (WNV MTase [5]; [6]): 17.6 µM
CC50 relative to IC50 (fold higher) (BHK-21 cells): 20 fold
EC50 (WNV): 2.6 µM

S=C(Nc1ccc2c(c1)Cc1ccccc1-2)Nc1ccc2c(c1)Cc1ccccc1-2 [NSC 23217]
IC50 (WNV MTase [3]): 7.4 µM
IC50 (WNV MTase [5]; IC50 N7, no CHAPS, no CHAPS): 15.7 µM
IC50 (WNV MTase [5]; [6]): > 300 µM

CC1OC(CC(=O)O)Cc2c1c(O)c1c(O)cc(-c3cc(=O)c4c(=O)c5c(c(=O)c=4c3=O)CC(CC(=O)O)OC5C)c(O)c1c2O (stereo not shown) [NSC 293161]
IC50 (WNV MTase [3]; [7]): 54.6 µM
IC50 (WNV MTase [5]; [8]): 13.2 µM
IC50 (WNV MTase [5]; read-out: IC50 N7, with CHAPS, with CHAPS): 31 µM
CC50 (BHK-21 cells): 25 µM

Nc1ncnc2c1ncn2[C@@H]1O[C@H](C[C@@H](N)CC[C@H](N)C(=O)O)[C@@H](O)[C@H]1O [SIN, sinefungin, reference compound]
effect of CHAPS on inhibition activity (WNV MTase [5]; N7 inhibition with detergent CHAPS): not affected at all
inhibition at 150 µM (WNV MTase [5]; read-out: inhibition of N7 activity of the WNV MTase): ~80%

Nc1nc(-c2cccc([N+](=O)[O-])c2)cc(-c2cc(-c3cccc([N+](=O)[O-])c3)nc(N)n2)n1 [NSC 371880]
IC50 (WNV MTase [3]; [7]): 72 µM
IC50 (WNV MTase [5]; [8]): 63 µM
CC50 (BHK-21 cells): 212 µM

O=C1C2=C(Nc3cc([N+](=O)[O-])ccc3N2)OC1c1ccc(C2OC3=C(Nc4ccc([N+](=O)[O-])cc4N3)C2=O)cc1 (stereo not shown) [NSC 372295]
IC50 (WNV MTase [3]; [7]): 57 µM
IC50 (WNV MTase [5]; [8]): 62 µM
CC50 (BHK-21 cells): 126 µM
